Measurements as given in paper PMC13144739, “Global analysis of cancer cell responses to USP9X inhibition” (The EMBO Journal, 2026).
Where “and” joins values, the source holds several entries; their conditions need not be identical. Identical values can stand only once. Entries after “also recorded” stand apart in the source; their conditions may differ.

Experiments:
SK-MEL-2 cells = test: Lattice light sheet imaging of mitosis, SK-MEL-2; assay type: cell-based, human; details: 15 µM, imaged 24-48 h
Procedure: MDA-MB-231, MiaPaca2, HMEC-1, SK-MEL-2 and UO-31 cells were seeded at 2–15 × 10^4 cells/mL in 8-well glass µ-slides (ibidi). […] SPY650-Tubulin, SPY555-DNA (both Spirochrome, Inc.), and Annexin V FITC (Sigma-Aldrich) were added at a final concentration of 1 in 1000. Cells were left to grow for 24 h before time-lapse live-cell data were acquired using a Lattice Light Sheet 7 (Zeiss). […] Aberration correction was set to a value of 170 to minimise aberrations as determined by imaging the Point Spread Function using 100 nm fluorescent microspheres. Data were collected with a frame time of 10 ms and a z step of 0.4 μm with 834 frames per 290 μm by 290 μm. Individual regions were imaged in parallel across six wells of the eight-well chamber slide. Data are presented as Maximum Intensity Projections (MIPs), and these MIPs were used for all downstream analysis. Tile regions were imaged for 24 h with 10 min intervals at 37 °C, 5% CO2. Analysis was performed using the MIPs of the different full fields of cells over the 24–48 h time period. Mitosis and mitosis arrest were classified through a combination of automated image analysis and manual validation. […] Small erroneous detected spots were further removed through a manually adjusted size filter. […] The mean intensity of all tracks was then measured to determine mitosis and mitosis arrest. […]

HUVEC = test: Colony formation assay, HUVEC; assay type: cell-based, human; details: 10 µM, 7–12 days
Procedure: Cells were seeded at low density (200–4000 cells per well) after initial optimisation in a six-well tissue culture-treated plate (Falcon). Twenty-four hours post seeding, media was replaced, and the inhibitor was added. Cells were left to grow into colonies between 7 and 12 days, depending on the cell line. For analysis, the media was removed, and the cells were fixed with 10% (w/v) formalin for 10 min. Colonies were stained with crystal violet (Sigma-Aldrich, 0.5% [w/v] in 20% [v/v] MeOH) for 10 min and washed thrice with distilled H2O. Plates were imaged using the ChemiDoc imaging system (Bio-Rad) and analysed using the ImageJ ColonyArea plugin as described previously (Guzmán et al, [2014]).

USP9X catalytic domain = biological target: T1, USP9X catalytic domain (Homo sapiens, UniProt Q93008); test: SPR binding assay; details: SPR, steady state, mean of three repeats; read-out: KD (steady state affinity)
T1 construct: His/SUMO (pOPIN-S vector) (N, cleaved yes); made in house; host or cells: E. coli BL21
T1 sequence (Q93008 1551-1970): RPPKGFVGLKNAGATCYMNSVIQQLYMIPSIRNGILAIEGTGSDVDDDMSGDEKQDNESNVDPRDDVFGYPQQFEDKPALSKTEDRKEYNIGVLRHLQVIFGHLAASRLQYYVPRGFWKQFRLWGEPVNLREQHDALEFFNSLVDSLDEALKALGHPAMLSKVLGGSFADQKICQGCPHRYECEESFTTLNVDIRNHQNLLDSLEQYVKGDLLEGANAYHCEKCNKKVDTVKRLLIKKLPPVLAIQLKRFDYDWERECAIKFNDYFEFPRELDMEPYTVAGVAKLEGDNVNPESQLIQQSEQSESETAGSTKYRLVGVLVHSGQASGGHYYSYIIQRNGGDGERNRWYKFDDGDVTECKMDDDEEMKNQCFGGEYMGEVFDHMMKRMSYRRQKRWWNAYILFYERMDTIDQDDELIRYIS
Procedure: Next, the sample was desalted using PD midiTrap™ G-25 (GE Healthcare) columns following the manufacturer’s instructions and was further purified by SEC, concentrated, and stored at -80 °C. Enzyme activity was tested in a ubiquitin-probe assay. SPR experiments were performed on a Biacore 8 K+ instrument (Cytiva). USP9X catalytic domain with a C-terminal AviTag™ was immobilised in 10 mM HEPES, 150 mM NaCl at pH 7.4 on a Series S Sensor Chip SA (Cytiva) by coupling. […] Running buffer was supplemented with 2% (v/v) DMSO. Multi-cycle kinetics were performed with 120 s associations and 600 s dissociations at 30 µL/min with no further regeneration. Binding constants were determined in Biacore Insight evaluation software (v5.0.18) at steady state, taking the median response over a 5-s window beginning at 10 s before the end of the association phase. Final KD values are the mean of three independent experiments.

USP9X/USP24 chimera = biological target: T2, USP9X/USP24 chimera (Homo sapiens, UniProt Q93008, A1766S/D1761E/K1759R/L1762V/Y1757F); test: Ub-Rho cleavage assay, USP9X/USP24 chimera; assay type: biochemical
T2 construct: His/SUMO (pOPIN-S vector) (N, cleaved yes); made in house; host or cells: E. coli BL21
Source text: An expression construct for the USP9X catalytic domain (aa 1551–1970, […]: Q93008-1), was codon optimised for bacterial expression, synthesised in gBlock format (Integrated DNA Technologies) and cloned into the pOPIN-S vector (Berrow et al, [2007]), which was digested with KpnI and HindIII using In-Fusion™ HD cloning (Takara Clontech). […] For the USP9X Δβ catalytic domain a deletion construct ΔE1924-K1943 and for USP9X/USP24 chimera, a construct with USP9X Y1757-A1766 replaced with the USP24 (NCBI Reference Sequence: NP_056121) aa motif […] was used. All constructs were confirmed by Sanger sequencing (AGRF).
The reaction was stopped through the addition of 10 mM citric acid. The assay was performed in 384-well format with a total reaction volume of 16 µL. Data was collected using the ClarioSTAR plate reader (BMG Labtech) at an emission of 535 nm. […] IC50 values presented in our study are the mean of three independent biological repeats unless indicated otherwise.

T2 sequence (Q93008 1551-1970 Y1757F/K1759R/D1761E/L1762V/A1766S): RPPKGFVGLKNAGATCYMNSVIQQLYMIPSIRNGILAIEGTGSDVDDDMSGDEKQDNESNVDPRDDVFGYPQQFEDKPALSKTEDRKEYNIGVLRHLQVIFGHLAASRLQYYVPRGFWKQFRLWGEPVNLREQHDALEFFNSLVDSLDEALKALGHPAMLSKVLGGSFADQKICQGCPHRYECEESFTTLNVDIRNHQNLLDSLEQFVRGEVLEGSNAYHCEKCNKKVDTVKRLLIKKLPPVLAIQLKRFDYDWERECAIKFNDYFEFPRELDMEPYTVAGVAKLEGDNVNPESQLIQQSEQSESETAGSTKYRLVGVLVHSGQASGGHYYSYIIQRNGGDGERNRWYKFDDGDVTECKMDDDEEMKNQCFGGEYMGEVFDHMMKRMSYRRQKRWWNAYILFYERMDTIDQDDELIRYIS

Cc1[nH]c2ccc(C(=O)N3CCN(S(=O)(=O)c4ccc5c(c4)OCCO5)CC3)cc2c1C [WEHI-092]
cell division phenotype, SK-MEL-2 (SK-MEL-2 cells): significant defects in cell division | clonogenic potential, HUVEC (HUVEC): limited or no effects | Kd (USP9X catalytic domain): 1000 nM and 1050 nM | activity of USP9X/USP24 chimera in presence of compound (USP9X/USP24 chimera): remained fully active at concentrations up to 10 µM; also recorded: no longer inhibited
